Test results taken from publication PMC9768205, “Pharmacological targeting of the mitochondrial calcium-dependent potassium channel KCa3.1 triggers cell death and reduces tumor growth and metastasis in vivo” (Cell Death & Disease, 2022).

Molecular target: T1, KCa3.1 (Homo sapiens, UniProt O15554)
T1 construct: gene KCNN4
Assay: whole-cell perforated patch clamp, block of DC-EBIO/ionomycin-activated current
Type: cell-based

T1 sequence (O15554 whole entry): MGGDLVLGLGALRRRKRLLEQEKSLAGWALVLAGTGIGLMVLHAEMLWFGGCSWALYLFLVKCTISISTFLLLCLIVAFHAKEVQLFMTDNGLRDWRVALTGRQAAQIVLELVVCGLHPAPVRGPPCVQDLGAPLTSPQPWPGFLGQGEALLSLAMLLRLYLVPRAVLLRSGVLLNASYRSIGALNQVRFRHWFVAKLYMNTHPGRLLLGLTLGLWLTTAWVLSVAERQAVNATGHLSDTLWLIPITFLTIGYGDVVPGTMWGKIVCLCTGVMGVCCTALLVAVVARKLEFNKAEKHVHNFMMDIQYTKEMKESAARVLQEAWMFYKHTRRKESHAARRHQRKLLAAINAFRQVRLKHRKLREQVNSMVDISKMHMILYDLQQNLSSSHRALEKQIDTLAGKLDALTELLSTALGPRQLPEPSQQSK

SMILES: Clc1ccccc1C(c1ccccc1)(c1ccc(CCC[P+](c2ccccc2)(c2ccccc2)c2ccccc2)cc1)n1cccn1 (stereo not shown) [mitoTRAM-34, (3-(4-((2-chlorophenyl)(phenyl)(1H-pyrazol-1yl)methyl)phenyl)propyl)triphenylphosphonium iodide]
- IC50: ~2000 nM
